# In patent US9023853B2, “Janus kinase 2 (JAK2) inhibitor for the treatment of lupus” (Cephalon, Inc., priority 2010, dated 2015):
# Legend:
# Format in all cases: in vivo, mouse
# CXCL9/MIG = assay: Serum CXCL9/MIG in NZM mice
# Procedure: (§1) For the processing of serum samples for cytokine analysis, frozen plasma at −80° C. was thawed on ice, vortexed, and centrifuged for 10 minutes to remove debris and aggregates. A total of 25-50 μL of serum was used for Luminex® assays following the manufacturer's instructions. Ten different mouse cytokines were measured using the mouse cytokine 10-plex bead kit (Invitrogen, Carlsbad, Calif., no. LMC0001). Briefly, filter plates (Millipore, Billerica, Mass., no. MAIPSWU10), were pre-wet with 200 μL of wash solution (kit component) and 25 μL of beads were added per well. […]
# (§2) Age mated, female, NZM or NZW/LacJ, mice were matured for the study of lupus nephritis for a total of 7 months or 210 days at which time urine was collected for proteinuria detection. Mice with 0.5-1.0 mg/ml of urine protein as determined by an optical density-based total protein precipitation assay and cross-checked for 30-300 mg/dl of protein as determined by a stick assay were considered proteinuria positive and selected for study entry. […] End-stage lupus nephritis was evaluated by histopathology and scored by a board certified pathologist for the assessment of total renal damage in diseased animals using the scoring method described by Smith et al (Smith, Dong et al. 2007). […]
# CXCL10/IP-10 = assay: Serum CXCL10/IP-10 in NZM mice
# Procedure: as §1, §2
# IL-12 = assay: Serum IL-12 (Luminex) in MRL/lpr mice
# Procedure: For the processing of serum samples for cytokine analysis, frozen plasma at -80° C. was thawed on ice, vortexed, and centrifuged for 10 minutes to remove debris and aggregates. A total of 25-50 μL of serum was used for Luminex® assays following the manufacturer's instructions. Ten different mouse cytokines were measured using the mouse cytokine 10-plex bead kit (Invitrogen, Carlsbad, Calif., no. LMC0001). Briefly, filter plates (Millipore, Billerica, Mass., no. […]10), were pre-wet with 200 μL of wash solution (kit component) and 25 μL of beads were added per well. Serum samples were diluted and a total volume of 50 μL was added per well (ie, 25 μL of sample serum plus 25 μL of assay diluent as provided by the manufacturer). Plates with beads were incubated for 2 hours at room temperature (RT) on an orbital shaker in the dark. At the end of the incubation, plate(s) were washed twice in kit buffer, secondary biotinylated antibody was added at a 1:10 dilution (100 μL) in biotin diluent provided with the kit. Plates were incubated at RT for 1 hour in the dark then washed twice in kit buffer. Strepavidin in assay diluent was added at 100 μL per well, then incubated for 30 minutes at RT in the dark. The plates were washed 3 times then 100 μL of kit wash solution was added and agitated for 2-3 minutes at RT in the dark. […]
# IL-13 = assay: Serum IL-13 in NZM mice
# Procedure: as §1, §2
smiles,measurement,setting,value
"CN1CCN(c2cccc(Nc3nc4c(-c5ccc(S(C)(=O)=O)cc5)cccn4n3)c2)CC1 [COMPOUND A, [8-(4-methanesulfonyl-phenyl)-[1,2,4]triazolo[1,5-a]pyridin-2-yl]-[3-(4-methyl-piperazin-1-yl)-phenyl]-amine]",serum CXCL9/MIG decrease compared to vehicle,CXCL9/MIG; 55 mg/kg,83.7%
same,serum CXCL9/MIG decrease compared to vehicle,CXCL9/MIG; 100 mg/kg,85.7%
same,serum CXCL10/IP-10 decrease compared to vehicle,CXCL10/IP-10; 55 mg/kg,47.3%
same,serum CXCL10/IP-10 decrease compared to vehicle,CXCL10/IP-10; 100 mg/kg,80.0%
same,serum IL-12 decrease compared to vehicle,IL-12; 55 mg/kg p.o. b.i.d.,50.7%
same,serum IL-12 decrease compared to vehicle,IL-12; 100 mg/kg p.o. b.i.d.,56.1%
same,serum IL-13 decrease compared to vehicle,IL-13; 55 mg/kg,86.2%
same,serum IL-13 decrease compared to vehicle,IL-13; 100 mg/kg,79.5%
